According to ChEMBL document CHEMBL3124783, “Study of the structural and dynamic effects in the FimH adhesin upon α-d-heptyl mannose binding” (J Med Chem, 2014):
Active and inactive are the calls of the source. The calls are words filed in the database; no cut-off is given here.

How the values were obtained:
Escherichia coli J96 = assay: Selectivity ratio of Kd for Escherichia coli J96 FimH lectin domain Y48A mutant to Kd for Escherichia coli J96 wild type FimH lectin domain
[1] = target: Type 1 fimbrin D-mannose specific adhesin (Escherichia coli K-12) (UniProt P08191); assay: Binding affinity to Escherichia coli J96 FimH lectin domain expressed in Escherichia coli C43 (DE3) by NMR analysis
[2] = target: Type 1 fimbrin D-mannose specific adhesin (Escherichia coli K-12) (UniProt P08191); assay: Binding affinity to Escherichia coli J96 FimH lectin domain expressed in Escherichia coli C43 (DE3) by SAXS analysis
[3] = target: Type 1 fimbrin D-mannose specific adhesin (Escherichia coli K-12, UniProt P08191); assay: Binding affinity to Escherichia coli J96 wild type FimH lectin domain expressed in Escherichia coli C43 (DE3) by direct ITC analysis
[4] = Binding affinity to Escherichia coli FimH lectin domain
[5] = Binding affinity to Escherichia coli J96 FimH lectin domain Y48A mutant expressed in Escherichia coli C43 (DE3) by direct ITC analysis

Sequence of Type 1 fimbrin D-mannose specific adhesin (Escherichia coli K-12) (P08191 whole entry, the tested form may be a part): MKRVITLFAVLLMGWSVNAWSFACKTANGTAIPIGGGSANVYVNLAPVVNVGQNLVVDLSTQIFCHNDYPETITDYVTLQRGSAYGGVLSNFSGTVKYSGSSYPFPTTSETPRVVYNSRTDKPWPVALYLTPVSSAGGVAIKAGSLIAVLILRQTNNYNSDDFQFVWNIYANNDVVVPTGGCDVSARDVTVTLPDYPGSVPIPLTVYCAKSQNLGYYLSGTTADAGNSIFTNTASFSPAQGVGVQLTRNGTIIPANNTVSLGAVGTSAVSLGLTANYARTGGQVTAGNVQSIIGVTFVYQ
Sequence of Type 1 fimbrin D-mannose specific adhesin (P08191 whole entry, the tested form may be a part): as above

Selectivity ratio (Escherichia coli J96): 5 | Activity [1]: Active | Activity [2]: Active | Kd [3]: 0.0171 µM
SMILES: CCCCCCCO[C@H]1O[C@H](CO)[C@@H](O)[C@H](O)[C@@H]1O
Kd [4]: 0.007 µM | Kd [5]: 0.0943 µM
